# Test system: not listed separately
# Assay: Antioxidant activity assessed as DPPH radical scavenging activity after 30 mins
# Format: functional
# Conditions: not given
row,Compound,EC50
1,CCOC(=O)/C=C(/C(=O)O)[C@H]1c2c(cc(O)c(O)c2O)C(=O)O[C@@H]1C(=O)OCC,8.1 µM
2,CCOC(=O)[C@H]1OC(=O)c2cc(O)c(O)c(O)c2[C@@H]1[C@@H](CC(=O)O)C(=O)OCC,8.1 µM
3,CCOC(=O)C[C@@H](C(=O)OCC)[C@H]1c2c(cc(O)c(O)c2O)C(=O)O[C@@H]1C(=O)OCC,6.8 µM
4,COC(=O)Cc1c2c3c(cc(O)c(O)c3oc1=O)C(=O)OC2,8 µM
5,CCOC(=O)[C@H]1CC(=O)c2c1c1c(O)c(O)c(O)cc1c(=O)n2CCCC(=O)OC,6.7 µM
6,CCOC(=O)C[C@@H](C(=O)O)[C@H]1c2c(cc(O)c(O)c2O)C(=O)O[C@@H]1C(=O)OCC,15.8 µM
7,CCOC(=O)/C(=C/C(=O)O)[C@H]1c2c(cc(O)c(O)c2O)C(=O)O[C@@H]1C(=O)OCC,10.8 µM
8,O=C1CCc2c1oc(=O)c1cc(O)c(O)c(O)c21,7.6 µM
9,CCOC(=O)C1(OCC)CC(=O)c2oc(=O)c3cc(O)c(O)c(O)c3c21 (racemic),4 µM
10,COC(=O)C1OC(=O)c2cc(O)c(O)c3oc(=O)c(CC(=O)O)c1c23 (racemic),7.7 µM
11,CCOC(=O)C1OC(=O)c2cc(O)c(O)c3oc(=O)c(CC(=O)O)c1c23 (racemic),9.9 µM
12,CCOC(=O)Cc1c2c3c(cc(O)c(O)c3oc1=O)C(=O)C2(O)C(=O)OCC (racemic),5.3 µM
13,O=C1O[C@H]([C@@H](O)CO)C(O)=C1O [ASCORBIC ACID],9.2 µM

# More lines, now with the values ahead:
row,EC50,Compound
1,3 µM,O=C1C[C@H](C(=O)O)c2c1oc(=O)c1cc(O)c(O)c(O)c21
2,6 µM,COC(=O)[C@H]1CC(=O)c2oc(=O)c3cc(O)c(O)c(O)c3c21
3,4.7 µM,O=C(O)Cc1c2c3c(cc(O)c(O)c3oc1=O)C(=O)OC2
4,4.4 µM,CCOC(=O)/C=C(/C(=O)OCC)[C@H]1c2c(cc(O)c(O)c2O)C(=O)O[C@@H]1C(=O)OC
5,6 µM,CCOC(=O)/C=C(/C(=O)OC)[C@H]1c2c(cc(O)c(O)c2O)C(=O)O[C@@H]1C(=O)OCC
6,2.2 µM,CCOC(=O)/C=C(/C(=O)OCC)[C@H]1c2c(cc(O)c(O)c2O)C(=O)O[C@@H]1C(=O)OCC
7,5.4 µM,CCOC(=O)/C=C(/C(=O)OCC)[C@H]1c2c(cc(O)c(O)c2O)C(=O)O[C@@H]1C(=O)O
8,6.7 µM,CCOC(=O)[C@H]1CC(=O)c2oc(=O)c3cc(O)c(O)c(O)c3c21
9,2.2 µM,CCOC(=O)Cc1c2c3c(cc(O)c(O)c3oc1=O)C(=O)OC2
10,4.2 µM,CCOC(=O)Cc1c2c3c(cc(O)c(O)c3oc1=O)C(=O)OC2C(=O)OCC (racemic)
11,6.5 µM,CCOC(=O)Cc1c2c3c(cc(O)c(O)c3oc1=O)C(=O)OC2C(=O)OC (racemic)

# Test system: BV-2
# Assay: Antineuroinflammatory activity in mouse BV2 cells assessed as inhibition of LPS-induced NO production incubated for 24 hrs by Griess assay
# Format: functional, cell-based
# Conditions: BV-2, 24 h
row,Compound,IC50
1,CCOC(=O)[C@H]1CC(=O)c2oc(=O)c3cc(O)c(O)c(O)c3c21,30.5 µM
2,O=C1CCc2c1oc(=O)c1cc(O)c(O)c(O)c21,27 µM
3,CCOC(=O)Cc1c2c3c(cc(O)c(O)c3oc1=O)C(=O)C2(O)C(=O)OCC (racemic),31.5 µM
4,CN(C)c1ccc(O)c2c1C[C@H]1C[C@H]3[C@H](N(C)C)C(O)=C(C(N)=O)C(=O)[C@@]3(O)C(O)=C1C2=O [MINOCYCLINE],18.5 µM

# Source: ChEMBL document CHEMBL4610075, “Isolation, Absolute Configuration, and Biological Activities of Chebulic Acid and Brevifolincarboxylic Acid Derivatives from Euphorbia hirta” (J Nat Prod, 2020)
